Where “and” joins values, the source holds several entries; their conditions need not be identical. Equal entries are not always repeated.
Tests used:
[1] = biological target: T1, IDO1 enzyme (ferric and deoxy-ferrous) (Homo sapiens, UniProt P14902); assay: Binding analysis by UV-Vis spectroscopic measurement; conditions: for Soret band red-shift: both ferric-IDO1 and deoxy-ferrous-IDO1; for Q-band shift: deoxy-ferrous-IDO1, Q-band at 551 nm for only enzyme
T1 construct: made in house; host or cells: Escherichia coli M15 (pQE30 vector with pREP4 plasmid)
Method: Figure 4 Binding properties of the potent compounds. Absorption spectra of ferric-IDO1 (A) and deoxy-ferrous-IDO1 enzyme (B) in the absence and presence of the compounds (20 μM) in 100 mM phosphate buffer at pH 6.5. [IDO1] = 0.65 μM. The ferrous-deoxy reaction environment was generated by adding Na2S2O4 to the solution under N2 atmosphere. The binding isotherms were generated from the response unit (RU) at 60 sec (average of triplicate measurements) versus the concentration of the compounds. A solid line represents a theoretical curve constructed from Rmax and Kd values determined by nonlinear least-squares analysis of the isotherms (C). 20 mm HEPES buffer, pH 7.4, with 0.16 m KCl was used for all SPR measurements. […] The model structures were generated using MoleGro Virtual Docker, version 6.0. The oxygen and nitrogen atoms are shown in red and blue, respectively. Residues involved in interactions through hydrogen bond formation are shown using dashed lines (yellow). Images were generated using PyMol.
The efficacy of the compound’s direct binding to the enzyme active site was measured by UV-Vis spectroscopic analysis[26]–[28],[30]. All the measurements were performed at room temperature using 100 mM KPB (pH 6.5), purified hIDO1 enzyme (3 µM), and selected compounds (20 µM. The deoxy-reaction system was generated by injecting Na2S2O4 (~10-fold excess) into the solution pre-purged with N2 gas.

[2] = biological target: T2, purified human TDO enzyme (Homo sapiens, UniProt P48775); assay: TDO inhibition assay by the spectrometric method; type: biochemical; conditions: for inhibitory efficacies against TDO enzyme: both spectrophotometric and kynurenine assay
T2 construct: 6xHis (N); made in house; host or cells: Escherichia coli BL21 (DE3) (pET 28a vector)
Method: Both IDO1 and TDO inhibition assays were performed according to the reported procedures[26]–[30],[50],[51]. The solubility of the compounds in water was either moderate or poor. […] In the assay system, the minimum and maximum amount of DMSO was 0.02% and 2%, respectively. The standard reaction mixture (500 μL) containing KPB (100 mM, pH 6.5 for IDO1 enzyme and 50 mM, pH 8.0 for TDO enzyme), sodium ascorbate (20 mM), methylene blue (10 µM), catalase (240 nM, from bovine liver), L-Trp (150 µM), purified enzyme (40 nM for IDO1 and 25 nM for TDO), DMSO (0.05%, v/v), Triton-X 100 (0.01%, v/v) and inhibitors was incubated at 37 °C for 1 hour. The concentration of the inhibitors was varied from 100 µM to 32 nM by serial dilution technique. Then, the reaction was quenched with 100 µL of 30% (w/v) trichloroacetic acid and was incubated for further 15 minutes at 65 °C. After that, 2% (w/v) pDMAB was used to quantify the amount of kynurenine formation. The absorbance of the reaction mixture was recorded by UV-Vis spectrophotometer at 480 nm. The Km = 59.76 µM and Kcat = 6.18 sec^−1.

EAC solid tumor = EAC solid tumor model in vivo; set-up: species or system female Swiss albino mice; conditions: for tumor growth inhibition (TGI): 5 mg/kg body weight, intravenously at alternate days, female Swiss albino mice; for CD8+ T cell population in vivo solid tumors: flow cytometry of tumor tissue post sacrifice
Method: Female Swiss albino mice of age 6 weeks (weight = 20 gm) were selected for the experiments. Animals were housed in animal facility room, Department of Zoology, University of Calcutta at 25 ± 2 °C, relative humidity of nearly 45 ± 5% with alternative 12 hours day/ night cycle with access of food and water. All the experiments were carried out as per guideline of the Committee for the Purpose of Control and Supervision of Experimental Animals (CPCSEA), Government of India (Registration No: 885/GO/Re/S/05/CPCSEA) and approved by the Institutional animal ethical committee (IAEC), University of Calcutta.
Ehrlich ascites carcinoma (EAC) cells were maintained in the ascetic form in female Swiss albino mice by intraperitoneal transplantation every 10th day on each mice. The ascetic fluid was drawn on 7th day on implantation according to previously described protocol. Isolated cells were diluted in sterile PBS. 2 × 10^6 cells were then implanted on thigh muscle of all the animals selected for experiment.
Female Swiss albino mice were divided into four groups (n = 6 each group). Post inoculation of the cells in thigh muscle on day 0 mice in their respective group was allowed to treat for 5 days on every alternate day at treatment of 5 mg/ kg body weight described below. All the mice were sacrificed on day 10.
Tumor tissues post sacrifice were digested in collagenase IV medium for 2 hours. The tissues were passed through wire mesh and single-cell strainer. Then the cells were washed in PBS, and immunophenotyping was performed, and cells were stained against APC-CD8 for finding infiltrated CD8 T cell populations by flow cytometry analysis.

T2 sequence (P48775 whole entry): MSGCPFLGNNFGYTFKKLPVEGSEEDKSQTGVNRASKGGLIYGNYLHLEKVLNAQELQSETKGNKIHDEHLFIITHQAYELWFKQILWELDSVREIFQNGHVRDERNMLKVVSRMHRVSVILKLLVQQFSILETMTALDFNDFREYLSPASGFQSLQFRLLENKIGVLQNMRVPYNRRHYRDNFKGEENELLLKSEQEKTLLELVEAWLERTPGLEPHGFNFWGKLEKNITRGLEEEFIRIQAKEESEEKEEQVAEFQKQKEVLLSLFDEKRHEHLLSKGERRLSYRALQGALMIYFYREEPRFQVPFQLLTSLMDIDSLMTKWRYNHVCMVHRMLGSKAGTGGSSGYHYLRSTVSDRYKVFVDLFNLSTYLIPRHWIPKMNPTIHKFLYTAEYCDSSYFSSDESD
T1 sequence (P14902 whole entry): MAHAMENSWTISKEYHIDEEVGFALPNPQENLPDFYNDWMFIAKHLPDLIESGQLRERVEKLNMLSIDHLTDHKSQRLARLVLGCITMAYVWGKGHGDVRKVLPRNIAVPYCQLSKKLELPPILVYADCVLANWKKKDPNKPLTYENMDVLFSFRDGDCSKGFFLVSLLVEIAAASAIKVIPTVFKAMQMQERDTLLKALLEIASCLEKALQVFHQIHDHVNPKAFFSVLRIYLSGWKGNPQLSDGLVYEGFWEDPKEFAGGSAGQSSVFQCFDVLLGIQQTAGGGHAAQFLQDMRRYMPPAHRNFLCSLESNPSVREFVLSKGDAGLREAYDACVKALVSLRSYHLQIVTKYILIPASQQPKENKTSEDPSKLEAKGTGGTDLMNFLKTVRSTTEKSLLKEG

Row | Soret band red-shift [1] | Q-band shift [1] | inhibitory efficacies against TDO enzyme [2] | % of Enzyme inhibition (TDO) ([2]; spectrophotometric, 32 nM) [%] | % of Enzyme inhibition (TDO) ([2]; spectrophotometric, 160 nM) [%] | % of Enzyme inhibition (TDO) ([2]; spectrophotometric, 800 nM) [%] | % of Enzyme inhibition (TDO) ([2]; spectrophotometric, 4 µM) [%] | % of Enzyme inhibition (TDO) ([2]; spectrophotometric, 20 µM) [%] | % of Enzyme inhibition (TDO) ([2]; spectrophotometric, 100 µM) [%] | inhibition at 0.032 µM ([2]; spectrophotometric, 32 nM) [%] | inhibition at 0.16 µM ([2]; spectrophotometric, 160 nM) [%] | inhibition at 0.8 µM ([2]; spectrophotometric, 800 nM) [%] | inhibition at 4 µM ([2]; spectrophotometric, 4 µM) [%] | inhibition at 20 µM ([2]; spectrophotometric, 20 µM) [%] | inhibition at 100 µM ([2]; spectrophotometric, 100 µM) [%] | Structure (SMILES) | tumor growth inhibition (TGI) (EAC solid tumor) | CD8+ T cell population in vivo solid tumors (EAC solid tumor)
1 | 5–8 nm | 10–13 nm | moderate to poor | 2 | 9 | 12 | 15 | 23 | 28 |  |  |  |  |  |  | CCOC(=O)c1n[nH]nc1-c1ccc(F)c(F)c1 [Compound 2i] |  | 
2 | 5–8 nm | 10–13 nm | moderate to poor | 5 | 11 | 14 | 26 | 33 | 49 |  |  |  |  |  |  | NC(=O)c1n[nH]nc1-c1ccc(F)c(F)c1 [Compound 3i] | 79–96% and 96% | induces CD8+ T cell population
3 | 5–8 nm | 10–13 nm | moderate to poor | 4 | 7 | 14 | 24 | 42 | 55 |  |  |  |  |  |  | O=C(N/C(Cc1ccc(O)cc1)=N\O)c1n[nH]nc1-c1ccc(F)c(F)c1 [Compound 4i] | 79–96% | induces CD8+ T cell population
4 | 5–8 nm | 10–13 nm | moderate to poor |  |  |  |  |  |  | 3 | 6 | 16 | 32 | 45 | 50 | NS(=O)(=O)NCCNC(=O)c1n[nH]nc1-c1ccc(F)c(F)c1 [Compound 4k] | 79–96% | induces CD8+ T cell population

Reference: paper PMC6895048, “4,5-Disubstituted 1,2,3-triazoles: Effective Inhibition of Indoleamine 2,3-Dioxygenase 1 Enzyme Regulates T cell Activity and Mitigates Tumor Growth” (Scientific Reports, 2019)
